Data as given in ChEMBL document CHEMBL3885861, “Open TG-GATES”.

Species on record: Rattus norvegicus
Assay: Open TG-GATES - Regimen: Daily Repeat
Format: toxicity, organism-based, Sprague-Dawley
Parameters: regimen Daily Repeat, gender Male, age 6 weeks
Conditions: in vivo, po, 300 mg/kg, route gavage, dose level High; for APTT / Bas / Eos / Fbg / Hb / Ht / Lym / MCH / MCHC / MCV / Mono / Neu / PT / Plat / RBC / Ret / WBC: tissue Blood
[1] = 72 h, tissue Kidney, time 3 day
[2] = 72 h, tissue Plasma, time 3 day

CCc1oc2ccccc2c1C(=O)c1cc(I)c(O)c(I)c1 [BENZIODARONE]
TERMINAL_BW (72 h, time 3 day): 237.2 g | APTT (72 h, time 3 day): 19.4 s | Bas (72 h, time 3 day): 0% | Eos (72 h, time 3 day): 1% | Fbg (72 h, time 3 day): 220.8 mg/dL | Hb (72 h, time 3 day): 13.6 g/dL | Ht (72 h, time 3 day): 40.1% | Lym (72 h, time 3 day): 70.4% | MCH (72 h, time 3 day): 22 pg | MCHC (72 h, time 3 day): 33.9% | MCV (72 h, time 3 day): 64.7 fL | Mono (72 h, time 3 day): 9% | Neu (72 h, time 3 day): 20% | PT (72 h, time 3 day): 11.8 s | Plat (72 h, time 3 day): 119.8 x10_4/uL | RBC (72 h, time 3 day): 619.2 x10_4/ul | Ret (72 h, time 3 day): 7.3% | WBC (72 h, time 3 day): 107.3 x10_2/uL | KIDNEY_L [1]: 1 g | KIDNEY_R [1]: 1 g | KIDNEY_TOTAL [1]: 2.1 g | LIVER (72 h, tissue Liver, time 3 day): 15.3 g | A/G [2]: 2 | ALP [2]: 951 IU/L | ALT [2]: 42.6 IU/L | AST [2]: 69.6 IU/L | BUN [2]: 16.4 mg/dL | CRE [2]: 0.6 mg/dL | Ca [2]: 10.6 mg/dL | Cl [2]: 104.8 meq/L | DBIL [2]: 0.038 mg/dL | GLC [2]: 178.4 mg/dL | IP [2]: 7 mg/dL | K [2]: 4.3 meq/L | LDH [2]: 121.6 IU/L | Na [2]: 141.4 meq/L | PL [2]: 132.4 mg/dL | RALB [2]: 3.8 g/dL | TBIL [2]: 0.3 mg/dL | TC [2]: 74.2 mg/dL | TG [2]: 34.2 mg/dL | TP [2]: 5.7 g/dL | gamma-GTP [2]: 1.4 IU/L | TERMINAL_BW ([…], time 7 day): 277.5 g | TERMINAL_BW ([…], time 14 day): 313.1 g | TERMINAL_BW ([…], time 28 day): 377.5 g | APTT ([…], time 7 day): 18.6 s | Bas ([…], time 7 day): 0% | Eos ([…], time 7 day): 0.6% | Fbg ([…], time 7 day): 217 mg/dL | Hb ([…], time 7 day): 13.9 g/dL | Ht ([…], time 7 day): 40.9% | Lym ([…], time 7 day): 82.2% | MCH ([…], time 7 day): 21.5 pg | MCHC ([…], time 7 day): 33.9% | MCV ([…], time 7 day): 63.5 fL | Mono ([…], time 7 day): 6.8% | Neu ([…], time 7 day): 10.8% | PT ([…], time 7 day): 12 s | Plat ([…], time 7 day): 125.7 x10_4/uL | RBC ([…], time 7 day): 644 x10_4/ul | Ret ([…], time 7 day): 4.3% | WBC ([…], time 7 day): 103.8 x10_2/uL | APTT ([…], time 14 day): 19.3 s | Bas ([…], time 14 day): 0% | Eos ([…], time 14 day): 1% | Fbg ([…], time 14 day): 211.8 mg/dL | Hb ([…], time 14 day): 14.4 g/dL | Ht ([…], time 14 day): 42.6% | Lym ([…], time 14 day): 82.8% | MCH ([…], time 14 day): 21.1 pg | MCHC ([…], time 14 day): 33.9% | MCV ([…], time 14 day): 62.1 fL | Mono ([…], time 14 day): 6% | Neu ([…], time 14 day): 10.8% | PT ([…], time 14 day): 12 s | Plat ([…], time 14 day): 116.1 x10_4/uL | RBC ([…], time 14 day): 685.4 x10_4/ul | Ret ([…], time 14 day): 2.8% | WBC ([…], time 14 day): 121 x10_2/uL | APTT ([…], time 28 day): 20.8 s | Bas ([…], time 28 day): 0% | Eos ([…], time 28 day): 1.6% | Fbg ([…], time 28 day): 223 mg/dL | Hb ([…], time 28 day): 15 g/dL | Ht ([…], time 28 day): 44.3%
